Results on two compounds are retold here after patent publication US20240277617A1, “NANOTECHNOLOGICAL PLATFORM BASED ON POLYURETHANE/POLYUREA CHEMISTRY TO FURNISH WATER-OIL-WATER MULTI WALLED AND FUNCTIONALIZABLE NANOCAPSULES AND THEIR PREPARATION PROCESS” (ECOPOL TECH SL, priority 2021, published 2024).

Data set [1] relates to A375 Human Melanoma cell line. Nature of the data set: In vivo fluorescence imaging biodistribution in subcutaneous tumor mice. Conditions: i.v. at day 14 post-tumor challenge; from 3 to 9-days after NCs injection.
Protocol: A model of immunodepressed mice have been used to conduct this experiment. Female NSG mice (9 weeks old, Charles River) were challenged by subcutaneous (s.c). injection of A375 Human Melanoma cell line (1×10^6) cells on the right flank with a 23-gauge needle. Amphoteric ICG-NCs and cationic ICG-NCs were administered i.v. at day 14 post-tumor challenge. PBS and ICG free was injected to control groups. Fluorescence was monitoring by in vivo imaging system (IVIS; Perkin Elmer, Waltham, MA, USA) using excitation/emission wavelength of 780 nm/845 nm.
Data set [2] in a line: Acute toxicity analysis (haematological and biochemical parameters) after i.v. administration. More on the design: species or system BALB/C mice. Conditions: mouse, in vivo, iv. The procedure:
Encapsulated non-loaded NCS nanocapsules (cationic and amphoteric nanocapsules) were i.v. administered to female BALB/C mice (8 weeks old; Charles River) at three different doses. Blood and serum samples were obtained at 24 h post-administration for acute toxicity analysis (SBCV and SHCV, Universidad Autónoma de Barcelona).
Haematological parameters analysed in blood included white blood cells (WBC) count, red blood cells (RBC) count, haemoglobin (HGB), red blood cell specific volume (HCT), mean corpuscular volume (MCV), mean corpuscular haemoglobin (MCH), mean corpuscular haemoglobin concentration (MCHC), platelet (PLT), lymphocytes (LYMPH), monocytes (MONO), neutrophils (NEU), eosinophils (EO), and basophils (BASO).
Biochemical parameters detected in serum included albumin, alanine aminotransferase (ALT), aspartate aminotransferase (AST), total bilirubin levels (TBIL), creatinine (CREA), gamma-glutamyl transferase (GGT), potassium, total proteins, sodium, and urea.
Encapsulated or free R848 was i.v. administered to female BALB/C mice (8 weeks old; Charles River) at three different doses. Blood and serum samples were obtained at 24 h post-administration for acute toxicity analysis (SBCV and SHCV, Universidad Autónoma de Barcelona).

As for `CC1(C)C(/C=C/C=C/C=C/C=C2\N(CCCCS(=O)(=O)[O-])c3ccc4ccccc4c3C2(C)C)=[N+](CCCCS(=O)(=O)[O-])c2ccc3ccccc3c21.[Na+]` [ICG, Indocyanine Green], in data set [1], the “fluorescence signal / accumulation in tumor locations” value is on record as “low”.
In the case of `CCOCc1nc2c(N)nc3ccccc3c2n1CC(C)(C)O` [Sample R848, Resiquimod], in data set [2], the “biochemical parameters in serum with respect to untreated groups” value is listed as “No significant differences” and the “haematological parameters with respect to untreated groups” value is recorded as “No significant differences”.
